The text below walks through data of patent publication US6034215A, “3-amino-2-oxo-1-piperidnercetic derivatives as enzyme inhibitors” (Corvas International, Inc., priority 1997, dated 2000).

What is called IC50 is the midpoint of a concentration-inhibition curve.

Common to all, as to type: biochemical
In one assay the target is human α-thrombin (Homo sapiens, UniProt P00734). Nature of the assay: In vitro enzyme assay for specificity: Thrombin (fIIa) assay, IC50. The procedure:
IC50 determinations were conducted where HBSA (50 μL), α-thrombin (50 μl) and inhibitor (50 μl) (covering a broad concentration range), were combined in appropriate wells and incubated for 30 minutes at room temperature prior to the addition of substrate Pefachrome-t-PA (50 μl).

Another assay addresses human plasmin (Homo sapiens, UniProt P00747). Nature of the assay: In vitro enzyme assay for specificity: plasmin assay, IC50. The note with it: Table 3. Here is the method:
Plasmin catalytic activity was determined using the chromogenic substrate, S-2251 (D-valyl-L-leucyl-L-lysine-p-nitroanilide), which was obtained from Kabi Diagnostica.

For assay [1], the target named is T1, bovine pancreatic trypsin (Bos taurus, UniProt P00760).
T1 sequence (P00760 24-246): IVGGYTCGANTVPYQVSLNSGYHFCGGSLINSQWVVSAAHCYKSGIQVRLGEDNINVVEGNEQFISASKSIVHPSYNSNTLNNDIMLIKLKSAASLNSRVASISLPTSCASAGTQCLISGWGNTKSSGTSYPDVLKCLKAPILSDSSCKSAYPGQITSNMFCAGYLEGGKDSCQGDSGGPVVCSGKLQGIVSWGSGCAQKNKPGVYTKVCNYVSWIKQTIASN
Nature of the assay: In vitro enzyme assay for specificity: trypsin, IC50. The note with it: Table 2. The procedure:
Trypsin catalytic activity was determined using the chromogenic substrate, S-2222 (benzoyl-L-isoleucine-L-glutamic acid-(gamma-methyl ester)-L-arginine-p-nitroanilide), which was obtained from Kabi Diagnostica. […] Purified (3×-crystallized; TRL3) bovine pancreatic trypsin was obtained from Worthington Biochemical Corp. The enzyme was reconstituted in deionized water and diluted into HBSA prior to assay in which the final concentration was 0.5 nM.

The next assay concerns the target T2, Human rt-PA (Activase®) (Homo sapiens, UniProt P00750).
T2 construct: purchased Genentech Inc. Activase®
Nature of the assay: In vitro enzyme assay for specificity: recombinant tissue plasminogen activator, IC50. The note with it: Table 3.

For another assay, the target named is T3, human aPC (Homo sapiens, UniProt P04070).
T3 construct: purchased Hematologic Technologies, Inc
Nature of the assay: In vitro enzyme assay for specificity: activated protein C, IC50. The note with it: Table 3. Here is the method:
aPC catalytic activity was determined using the chromogenic substrate, Pefachrome PC (delta-carbobenzloxy-D-lysine -L-prolyl-L-arginine-p-nitroanilide), obtained from Pentapharm Ltd.). […] Purified human aPC was obtained from Hematologic Technologies, Inc. The enzyme was diluted into HBSA prior to assay in which the final concentration was 1.0 nM.

The mark [2] stands for this setting: Table 3, read-out: IC50 (nM) thrombin.

SMILES strings stand for the structures. Like-named read-outs stand apart in the source and are kept apart here.

T3 sequence (P04070 43-197 limits assumed): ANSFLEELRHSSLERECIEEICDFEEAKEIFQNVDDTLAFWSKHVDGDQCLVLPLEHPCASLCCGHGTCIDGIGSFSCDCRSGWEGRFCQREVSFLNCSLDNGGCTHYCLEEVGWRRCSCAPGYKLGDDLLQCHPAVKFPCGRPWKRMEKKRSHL
T3 sequence (P04070 212-461 limits assumed): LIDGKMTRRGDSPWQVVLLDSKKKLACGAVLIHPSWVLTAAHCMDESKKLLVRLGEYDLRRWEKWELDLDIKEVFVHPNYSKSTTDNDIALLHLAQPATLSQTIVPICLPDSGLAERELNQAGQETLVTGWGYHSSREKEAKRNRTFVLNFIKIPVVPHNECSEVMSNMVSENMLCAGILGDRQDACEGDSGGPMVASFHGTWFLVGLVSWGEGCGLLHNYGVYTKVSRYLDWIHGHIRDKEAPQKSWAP
Sequence of human plasmin (P00747 97-580 limits assumed): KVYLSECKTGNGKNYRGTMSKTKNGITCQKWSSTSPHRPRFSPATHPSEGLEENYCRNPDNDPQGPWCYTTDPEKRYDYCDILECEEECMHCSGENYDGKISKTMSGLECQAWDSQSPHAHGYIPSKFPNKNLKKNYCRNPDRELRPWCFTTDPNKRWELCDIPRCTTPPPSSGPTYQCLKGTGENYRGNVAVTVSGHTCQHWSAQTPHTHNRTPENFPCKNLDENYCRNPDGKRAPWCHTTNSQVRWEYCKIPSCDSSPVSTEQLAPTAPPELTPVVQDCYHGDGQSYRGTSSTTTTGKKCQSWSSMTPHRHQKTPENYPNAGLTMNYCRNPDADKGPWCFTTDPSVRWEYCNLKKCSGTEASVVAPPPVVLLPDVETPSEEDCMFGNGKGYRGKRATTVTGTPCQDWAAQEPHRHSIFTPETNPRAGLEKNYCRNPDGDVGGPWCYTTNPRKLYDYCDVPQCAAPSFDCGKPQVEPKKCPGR
Sequence of human plasmin (P00747 581-810 limits assumed): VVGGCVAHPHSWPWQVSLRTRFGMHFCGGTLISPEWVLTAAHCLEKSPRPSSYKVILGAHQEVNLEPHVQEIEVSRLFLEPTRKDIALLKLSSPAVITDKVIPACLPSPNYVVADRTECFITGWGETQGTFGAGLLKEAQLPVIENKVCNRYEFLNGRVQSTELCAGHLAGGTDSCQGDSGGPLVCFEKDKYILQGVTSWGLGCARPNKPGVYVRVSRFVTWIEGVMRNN
T2 sequence (P00750 36-562): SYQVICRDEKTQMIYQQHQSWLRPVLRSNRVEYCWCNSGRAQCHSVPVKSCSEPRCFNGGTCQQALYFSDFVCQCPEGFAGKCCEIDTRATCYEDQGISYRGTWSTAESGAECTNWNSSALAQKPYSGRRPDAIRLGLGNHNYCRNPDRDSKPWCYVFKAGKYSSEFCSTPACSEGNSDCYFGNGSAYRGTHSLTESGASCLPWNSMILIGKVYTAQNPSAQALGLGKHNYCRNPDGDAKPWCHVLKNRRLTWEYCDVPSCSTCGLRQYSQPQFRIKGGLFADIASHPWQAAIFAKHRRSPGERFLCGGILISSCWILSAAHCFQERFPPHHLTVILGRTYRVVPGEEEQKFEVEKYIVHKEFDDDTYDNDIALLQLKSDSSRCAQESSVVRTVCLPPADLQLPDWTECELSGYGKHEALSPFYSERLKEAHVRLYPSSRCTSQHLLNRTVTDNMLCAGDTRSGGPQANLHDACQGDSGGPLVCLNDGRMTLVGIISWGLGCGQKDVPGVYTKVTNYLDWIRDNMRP
Procedure for Human rt-PA (Activase®): The buffer used for all assays was HBSA (10 mM HEPES, pH 7.5, 150 mM sodium chloride, 0.1% bovine serum albumin). […] Following a 30-minute incubation at ambient temperature, 50 microliters of the substrate at the concentrations specified below, was added to the wells yielding a final total volume of 200 microliters. The initial velocity of chromogenic substrate hydrolysis was measured by the change in absorbance at 405nm using a Thermo Max® Kinetic Microplate Reader over a 5 minute period in which less than 5% of the added substrate was utilized.
rt-PA catalytic activity was determined using the substrate, Pefachrome t-PA (CH3SO2-D-hexahydrotyrosine-glycyl-L-arginine-p-nitroanilide, obtained from Pentapharm Ltd.). […] Human rt-PA (Activase®) was obtained from Genentech Inc. The enzyme was reconstituted in deionized water and diluted into HBSA prior to the assay in which the final concentration was 1.0 nM.

As for `NC(N)=NCCC[C@@H](C=O)NC(=O)CN1CCCCC(NS(=O)(=O)CC2CCCCC2)C1=O` (stereo partly drawn) [Example 36(i), N-(cyclohexylmethyl-SO2 -norLeu(cyclo)-Gly)-L-argininal], the IC50 is 4.54 nM at human α-thrombin (Table 2, 30-minute incubation with enzyme before substrate, read-out: IC50 alpha-thrombin); over 2500 nM against human plasmin; 7.86 nM in assay [1].

`NC(N)=NCCC[C@@H](C=O)NC(=O)CN1CCCCC(NS(=O)(=O)Nc2ccccc2)C1=O` (stereo partly drawn) [Example 36(n), N-(phenylamino-SO2 -norLeu(cyclo)-Gly)-L-argininal]: the IC50 is 14.2 nM at human α-thrombin (setting [2]) and over 2500 nM against human plasmin.

For `N=C(N)NCCC[C@@H](C=O)NC(=O)CN1CCCC(NS(=O)(=O)Cc2cccc(C(F)(F)F)c2)C1=O` (stereo partly drawn) [Example 36(p), N-(3-trifluoromethylbenzyl-SO2-norLeu(cyclo)-Gly)-L-argininal], the IC50 at human α-thrombin (setting [2]) was 1.9 nM; on Human rt-PA (Activase®) it was over 2500 nM; against human plasmin, over 2500 nM; on human aPC it was over 2500 nM.

In the case of `Cc1ccccc1CS(=O)(=O)NC1CCCN(CC(=O)N[C@H](C=O)CCCNC(=N)N)C1=O` (stereo partly drawn) [Example 36(q), N-(2-methylbenzyl-SO2-norLeu(cyclo)-Gly)-L-argininal], the IC50 on human α-thrombin (setting [2]) is 1.71 nM.

On to `Cc1cccc(CS(=O)(=O)NC2CCCCN(CC(=O)N[C@H](C=O)CCCN=C(N)N)C2=O)c1` (stereo partly drawn) [Example 36(r), N-(3-methylbenzyl-SO2-norLeu(cyclo)-Gly)-L-argininal], for which the IC50 on human α-thrombin (setting [2]) amounted to 0.93 nM.

Turning to `NC(N)=NCCC[C@@H](C=O)NC(=O)CN1CCCC(N)(Cc2ccccc2)C1=O` (stereo partly drawn) [Example 55, N-[D, L-3-Amino-3-benzyl-2-oxo-1-piperidineacetyl]-L-argininal], the IC50 was 5.41 nM at human α-thrombin (setting [2]), over 2500 nM on Human rt-PA (Activase®), over 2500 nM at human plasmin and over 2500 nM against human aPC.

Regarding `NC(N)=NCCC[C@@H](C=O)NC(=O)CN1CCCCC(N)(Cc2ccccc2)C1=O` (stereo partly drawn) [Example 64, N-[D,.L-3-Amino-3-benzyl-hexahydro-2-oxo-azepine-1-acetyl]-L-argininal], the IC50 at human α-thrombin (setting [2]) was 5.41 nM; on Human rt-PA (Activase®) it was over 2500 nM; against human plasmin, over 2500 nM; against human aPC, over 2500 nM.

On to `N=C(N)NCCC[C@@H](C=O)NC(=O)CN1CCC[C@H](NCCc2ccccc2)C1=O` [Example 72(a), N-[(S)-3-N-phenylethylamino-2-oxo-1-piperidineacetyl]-L-argininal], for which the IC50 on human α-thrombin (setting [2]) was 3.09 nM; at Human rt-PA (Activase®), over 2500 nM; against human plasmin, over 2500 nM; on human aPC it was over 2500 nM.
